# According to US8598200B2, “KAT II inhibitors” (Pfizer Inc., priority 2010, dated 2013):
# Molecular target: human KAT II (hKAT II) enzyme (Homo sapiens (Human), UniProt Q8N5Z0)
# Assay: KAT II Inhibition Spectra Assay
# Assay type: biochemical
# Settings: decrease in OD370, L-kynurenine substrate, 37° C. for 15-20 h; values marked ^1 are the average of 2 IC50 determinations; read-out: KATII IC50 (nM; single determination unless otherwise indicated)
# Procedure: Formation of kynurenic acid (KYNA) is indirectly assessed by a decrease in light absorbance at 370 nm (OD370) as the L-kynurenine (KYN) substrate is converted by the human KAT II (hKAT II) enzyme into KYNA. An inhibitor would therefore inhibit the decrease in OD370.
# The protocol was performed by placing the following reagents into a Costar 384 well black plate (30 μL total assay volume/well): • 10 μL of 3× concentrated compound; • 10 μL of 3× concentrated substrate mix (BGG (Sigma G-5009); 3 mM L-Kynurenine in 150 mM Tris Acetate (Sigma K3750); 3 mM α-ketoglutaric acid in 150 mM Tris Acetate (Sigma K2010); and 210 μM pyridoxal 5-phosphate (PLP) in 150 mM Tris Acetate (Sigma 9255)); and • 10 μL of 3× concentrated enzyme (15 nM enzyme in 150 mM Tris Acetate with 0.3% bovine serum).
# Plates were sealed and incubated at 37° C. for 15-20 h before reading OD370 on a SpectraMax Plus plate reader. IC50s were generated by comparing the efficacy of compounds across a concentration range to inhibit a reduction in the OD370 value relative to assay wells with DMSO added in place of concentrated compound. Biological data for the Examples may be found in Table 2.
# human KAT II (hKAT II) enzyme, sequence (Q8N5Z0 30-425): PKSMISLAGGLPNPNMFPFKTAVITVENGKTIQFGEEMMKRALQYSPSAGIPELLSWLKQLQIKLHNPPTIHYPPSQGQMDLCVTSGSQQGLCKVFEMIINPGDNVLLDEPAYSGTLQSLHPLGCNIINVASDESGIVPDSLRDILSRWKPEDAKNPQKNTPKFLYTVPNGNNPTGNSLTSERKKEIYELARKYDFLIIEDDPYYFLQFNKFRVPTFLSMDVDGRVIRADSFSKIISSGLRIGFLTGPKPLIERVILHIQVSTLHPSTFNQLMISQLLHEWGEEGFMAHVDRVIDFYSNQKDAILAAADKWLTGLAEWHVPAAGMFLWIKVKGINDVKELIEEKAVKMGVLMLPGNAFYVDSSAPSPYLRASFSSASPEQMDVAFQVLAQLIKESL
row,SMILES,IC50 [nM]
1,"Cn1ncc2c1N(O)C(=O)[C@@H](N)C2 [Example 18, (5S)-5-amino-7-hydroxy-1-methyl-1,4,5,7-tetrahydro-6H-pyrazolo[3,4-b]pyridin-6-one]",329
2,"N[C@H]1Cc2cn(Cc3ccc4ccccc4c3)nc2N(O)C1=O [Example 9, (5S)-5-amino-7-hydroxy-2-(2-naphthylmethyl)-2,4,5,7-tetrahydro-6H-pyrazolo[3,4-b]pyridin-6-one]",117
3,"COc1cccc(Cn2cc3c(n2)N(O)C(=O)[C@@H](N)C3)c1 [Example 11, (5S)-5-amino-7-hydroxy-2-(3-methoxybenzyl)-2,4,5,7-tetrahydro-6H-pyrazolo[3,4-b]pyridin-6-one]",8.93
4,"Cn1nc2c(c1Cc1ccc(C(F)(F)F)cc1)C[C@H](N)C(=O)N2O [Example 27, (5S)-5-amino-7-hydroxy-2-methyl-3-[4-(trifluoromethyl)benzyl]-2,4,5,7-tetrahydro-6H-pyrazolo[3,4-6]pyridin-6-one]",37
5,"N[C@H]1Cc2nn(Cc3ccccc3)cc2N(O)C1=O [Example 13, (6S)-6-amino-2-benzyl-4-hydroxy-2,4,6,7-tetrahydro-5H-pyrazolo[4,3-b]pyridin-5-one]",182
6,COc1ccc(Cc2nn(C)c3c2C[C@H](N)C(=O)N3O)cc1 [Example 21],440
7,"CCn1nc2c(c1Cc1ccccc1)C[C@H](N)C(=O)N2O [Example 23, (5S)-5-amino-3-benzyl-2-ethyl-7-hydroxy-2.4,5,7-tetrahydro-6H-pyrazolo[3,4-b]pyridin-6-one]",24.3
8,"Cn1nc2c(c1Cc1cccc(C(F)(F)F)c1)C[C@H](N)C(=O)N2O [Example 25, (5S)-5-amino-7-hydroxy-2-methyl-3-[3-(trifluoromethyl)benzyl]-2,4,5,7-tetrahydro-6H-pyrazolo[3,4-b]pyridin-6-one]",42.2
9,"Cc1c2c(nn1-c1ccccc1)C[C@H](N)C(=O)N2O [Example 17, (6S)-6-amino-4-hydroxy-3-methyl-2-phenyl-2,4,6,7-tetrahydro-5H-pyrazolo[4,3-b]pyridin-5-one]",2010
10,"Cn1nc2c(c1Cc1ccccc1)C[C@H](N)C(=O)N2O [Example 3, (5S)-5-Amino-3-benzyl-7-hydroxy-2-methyl-2,4,5,7-tetrahydro-6H-pyrazolo[3,4-b]pyridin-6-one]",11.5
11,"COc1ccccc1Cn1cc2c(n1)N(O)C(=O)[C@@H](N)C2 [Example 10, (5S)-5-amino-7-hydroxy-2-(2-methoxybenzyl)-2,4,5,7-tetrahydro-6H-pyrazolo[3,4-b]pyridin-6-one]",50.2
12,"Cc1c2c(nn1Cc1ccccc1)N(O)C(=O)[C@@H](N)C2 [Example 12, (5S)-5-amino-2-benzyl-7-hydroxy-3-methyl-2,4,5,7-tetrahydro-6H-pyrazolo[3,4-b]pyridin-6-one]",81.6
13,"Cn1nc(Cc2ccccc2)c2c1N(O)C(=O)[C@@H](N)C2 [Example 2, (5S)-5-Amino-3-benzyl-7-hydroxy-1-methyl-1,4,5,7-tetrahydro-6H-pyrazolo[3,4-b]pyridin-6-one]",63.7
14,"Cn1nc2c(c1Cc1ccccc1C(F)(F)F)C[C@H](N)C(=O)N2O [Example 26, (5S)-5-amino-7-hydroxy-2-methyl-3-[2-(trifluoromethyl)benzyl]-2.4,5,7-tetrahydro-6H-pyrazolo[3,4-b] pyridin-6-one]",40.7
15,"COc1cccc(Cc2nn(C)c3c2C[C@H](N)C(=O)N3O)c1 [Example 22, (5S)-5-amino-7-hydroxy-3-(3-methoxybenzyl)-1-methyl-1,4,5,7-tetrahydro-6H-pyrazolo[3,4-b]pyridin-6-one]",65.6
16,"N[C@H]1Cc2cn(-c3ccc(C(F)(F)F)cc3)nc2N(O)C1=O [Example 29, (5S)-5-amino-7-hydroxy-2-[4-(trifluoromethyl)phenyl]-2,4,5,7-tetrahydro-6H-pyrazolo[3,4-b]pyridin-6-one]",31.6
17,"N[C@H]1Cc2cn(-c3ccccc3C(F)(F)F)nc2N(O)C1=O [Example 28, (5S)-5-amino-7-hydroxy-2-[2-(trifluoromethyl)phenyl]-2,4,5,7-tetrahydro-6H-pyrazolo[3,4-b]pyridin-6-one]",38.8
18,"CC(C)n1nc2c(c1Cc1ccccc1)C[C@H](N)C(=O)N2O [Example 24, (5S)-5-amino-3-benzyl-7-hydroxy-2-isopropyl-2,4,5,7-tetrahydro-6H-pyrazolo[3,4-b]pyridin-6-one]",63
19,"N[C@H]1Cc2cn(C3CCC3)nc2N(O)C1=O [Example 19, (5S)-5-amino-2-cyclobutyl-7-hydroxy-2,4,5,7-tetrahydro-6H-pyrazolo[3,4-b]pyridin-6-one]",81.3
20,"N[C@H]1Cc2cn(Cc3ccccc3)nc2N(O)C1=O [Example 1, (5S)-5-Amino-2-benzyl-7-hydroxy-2,4,5,7-tetrahydro-6H-pyrazolo[3,4-b]pyridin-6-one]",59.4
21,"CC(C)n1cc2c(n1)N(O)C(=O)[C@@H](N)C2 [Example 20, (5S)-5-amino-7-hydroxy-2-isopropyl-2,4,5,7-tetrahydro-6H-pyrazolo[3,4-b]pyridin-6-one]",153
22,"N[C@H]1Cc2c(cnn2Cc2ccccc2)N(O)C1=O [Example 4, (6S)-6-Amino-1-benzyl-4-hydroxy-1,4,6,7-tetrahydro-5H-pyrazolo[4,3-b]pyridin-5-one]",22.5
23,"N[C@H]1Cc2cn(-c3cccc(C(F)(F)F)c3)nc2N(O)C1=O [Example 7, (5S)-5-Amino-7-hydroxy-2-[3-(trifluoromethyl)phenyl]-2,4,5,7-tetrahydro-6H-pyrazolo[3,4-b]pyridin-6-one]",74.7
24,"N[C@H]1Cc2cn(-c3ccccc3)nc2N(O)C1=O [Example 14, (5S)-5-amino-7-hydroxy-2-phenyl-2,4,5,7-tetrahydro-6H-pyrazolo[3,4-b]pyridin-6-one]",24.3
25,"N[C@H]1Cc2cn(Cc3cccc4ccccc34)nc2N(O)C1=O [Example 8, (5S)-5-amino-7-hydroxy-2-(1-naphthylmethyl)-2,4,5,7-tetrahydro-6H-pyrazolo[3,4-b]pyridin-6-one]",36
26,"N[C@H]1Cc2c(c(C(F)(F)F)nn2Cc2ccccc2)N(O)C1=O [Example 5, (6S)-6-Amino-1-benzyl-4-hydroxy-3-(trifluoromethyl)-1,4,6,7-tetrahydro-5H-pyrazolo[4,3-b]pyridin-5-one]",42.7
27,"N[C@H]1Cc2cn(Cc3ccc(OC(F)(F)F)cc3)nc2N(O)C1=O [Example 6, (5S)-5-Amino-7-hydroxy-2-[4-(trifluoromethoxy)benzyl]-2,4,5,7-tetrahydro-6H-pyrazolo[3,4-b]pyridin-6-one]",43.6
28,"COc1ccc(Cn2cc3c(n2)N(O)C(=O)[C@@H](N)C3)cc1 [Example 15, (5S)-5-amino-7-hydroxy-2-(4-methoxybenzyl)-2,4,5,7-tetrahydro-6H-pyrazolo[3,4-b]pyridin-6-one]",28.3
